Laboratory results taken from patent publication US20230235301A1, “Compounds and Methods for Treating, Ameliorating, or Preventing Herpes Ocular Keratitis” (THE TRUSTEES OF THE UNIVERSITY OF PENNSYLVANIA, priority 2020, published 2023).
Positions of bridges follow the written chain, without caps; N, C: chain ends. Non-standard residues stand in square brackets, D forms with d. Residues, ends and D or L forms follow the SMILES beside them. No end group written: not given here. R8 = C=CCCCCCC[C@@](C)(N)C(=O)O; S5 = C=CCCC[C@](C)(N)C(=O)O

Experiments:
Vero cells = test: Cytotoxicity observed in the plaque reduction assays; type: cell-based, African green monkey
Method: (§1) Cells with ~90% confluence in 48-well plates were infected by absorbing virus (~100 PFU/well) for 1 h in 100 µL growth medium followed by adding 200 µL culture medium containing DMSO vehicle or serially diluted peptides or Acyclovir (Tocris Bioscience-Fisher Scientific) to each well of the plate. DMSO was maintained at 1% throughout the treatment. Cells were subsequently fixed and stained with 300 µL PBS containing 4% formaldehyde and 0.2% crystal violet overnight at room temperature. HSV-1 plaques were quantified at ~55 h post-infection of Vero cells. VV (WR strain) infection of BSC-1 cells was analyzed for plaque formation after 24 h. The plaque reduction assays were performed in duplicate and independently repeated twice. Cells were stained, and plaques counted under a dissecting microscope. Data were plotted on the GraphPad Prism.
Cellular cytotoxicity of the N-terminal substituted stapled peptides was also assessed. S-pep7A caused observable cell death at 50 µM in the plaque assays.

HSV-1 [1] = test: microbe, parasite or virus in culture; type: cell-based; conditions: 1 h
Method: as §1
Standard viral plaque reduction assays were conducted in Vero cells to determine if any of the five stapled peptides (S-pep1/3/4/7/8) that were able to block processive DNA synthesis, could also block HSV-1 infection. To minimize possible interference of HSV-1 cell attachment and entry by the peptides, cells were first infected by absorbing the virus for 1 h, followed by treatment with peptides at serial dilutions. […] The EC50 values of both S-pep3 and S-pep8 were approximately 100 µM (FIG. 15C and FIG. 15F). Additionally, S-pep4 was toxic at 12.5 µM, which precluded further optimization.

[2] = ATP-based cytotoxicity in human primary corneal epithelial cells; type: cell-based; conditions: read-out: CC50 by ATP measurement
Method: (§2) Cells were grown in 96-well plates to ~80% confluence and treated with peptides at different concentrations in 150 µL growth medium containing 1% DMSO. At 24 h post-treatment, 100 µL of the culture medium was used for the lactate dehydrogenase (LDH) cytotoxicity assay. In addition, the cells from the same treatment were assessed with an ATP-based cell viability assay. Briefly, after the growth medium was completely removed, the cells were lysed in 100 µL of 1% Triton X-100 in PBS per well at room temperature. After 10 min, 5 µL of lysate was used for ATP-based luciferase/luminescence assay according to the manufacturer’s protocol (Invitrogen, USA). The assays were performed in triplicate and independently repeated twice.

[3] = system: HSV-1 viral DNA (UL42 gene); test: HSV-1 DNA replication in infected Vero cells (UL42 gene PCR); type: cell-based
Method: Confluent Vero cells in 48-well plates were infected by absorbing 10^5 PFU of HSV-1 (MOI ~1) for 1 h in 100 µL of DMEM medium containing 5% FBS. Unabsorbed virus was removed by washing the wells 4 times with PBS. Cells were then treated with S-pep7B (SEQ ID NO:32) peptide in triplicate at different dilutions in 300 µL growth medium containing 1% DMSO. At 4 h post-treatment, cells of each triplicate treatment were combined and lysed with 20 mM Tris buffer (pH 7.5) containing 20 mM EDTA, 0.5% SDS, and 0.5 mg/mL proteinase K. Total DNA was then prepared from the lysed cells with phenol/chloroform extraction and ethanol precipitation, and used for UL42 gene amplification by PCR using the primers described above for plasmid construction. After agarose gel electrophoresis, UL42 DNA levels were quantitated using an image capture and analysis system (G:Box Chemi HR, Syngene) and normalized to that of the cellular house-keeping gene GAPDH (glyceraldehyde-3-phosphate dehydrogenase), which was amplified using primers (forward: 5′-[…]-3′ (SEQ ID NO:55), and reverse: 5′-[…]-3′) (SEQ ID NO:56). The assays were independently repeated twice.
Experiments were subsequently performed to determine if the HSV-1 antiviral activity of S-pep7B was specifically due to the inhibition of viral DNA replication. […]

HSV-1 [4] = test: HSV-1 infection of human 3D organotypic corneal culture; type: cell-based; conditions: 25 µM, 5 days treatment, 3D organotypic corneal tissue
Excerpt: Cultures were assembled with human dermal fibroblasts isolated from newborn foreskins and primary human corneal epithelial cells isolated from unused sclerolimbal rings from corneal transplants. After three weeks, organotypic cultures with differentiated corneal epithelial cells overlaying a layer of fibroblasts are established, reproducing the organization of the anterior corneal surface (FIG. 23A).
The assembled 3D organotypic corneal culture was infected with HSV-1 by gently abrading the surface and topically applying 10^6 PFU/mL of HSV-1. After 1 h, unabsorbed virus was removed, and the culture was incubated in medium containing 25 µM S-pep7B in 0.5% DMSO. Treatment occurred over a period of 5 days, in which the medium containing S-pep7B was refreshed every other day. The corneal tissues were examined microscopically each day. At the end of the treatment period, the 3D tissue was cut in half, using the first half to measure the virus titer by plaque assay and the other half for histological examination.

[5] = system: vaccinia virus (VV, WR strain); type: cell-based; conditions: BSC-1 cells, plaques after 24 h
[6] = Cytotoxicity and cell viability assays (ATP content, LDH leakage) in Vero cells; type: cell-based; conditions: African green monkey, 24 h treatment
Method: as §2

[7] = molecular target: T1, HSV-1 Processivity Factor (UL42) (HSV-1 (strain KOS), UniProt P10226 1-488); test: cell-based or functional assay
T1 sequence: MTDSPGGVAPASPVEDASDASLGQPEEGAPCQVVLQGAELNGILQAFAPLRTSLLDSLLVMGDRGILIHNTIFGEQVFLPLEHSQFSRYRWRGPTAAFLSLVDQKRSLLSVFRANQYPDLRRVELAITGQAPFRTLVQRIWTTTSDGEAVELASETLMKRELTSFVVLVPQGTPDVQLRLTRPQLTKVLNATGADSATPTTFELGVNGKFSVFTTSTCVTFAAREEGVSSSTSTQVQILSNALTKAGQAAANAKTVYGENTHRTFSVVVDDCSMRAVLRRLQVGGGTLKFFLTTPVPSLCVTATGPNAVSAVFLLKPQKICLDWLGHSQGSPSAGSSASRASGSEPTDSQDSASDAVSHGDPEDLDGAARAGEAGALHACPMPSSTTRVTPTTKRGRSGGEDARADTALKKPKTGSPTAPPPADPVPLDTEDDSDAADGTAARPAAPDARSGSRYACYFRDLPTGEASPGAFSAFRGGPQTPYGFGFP

## CC(=O)N[C@H](C(=O)N[C@H](C(=O)N[C@@H](CCCNC(=N)N)C(=O)N[C@@H](CCCNC(=N)N)C(=O)N[C@@]1(C)CCCC=CCCC[C@@](C)(C(=O)N[C@@H](Cc2ccccc2)C(=O)N[C@@H](CC(=O)O)C(=O)N[C@H](C(=O)N[C@@H](CC(C)C)C(=O)N[C@@H](C)C(=O)O)[C@@H](C)O)NC(=O)[C@H](CCCNC(=N)N)NC(=O)[C@H](Cc2c[nH]cn2)NC(=O)[C@H](CC(C)C)NC1=O)[C@@H](C)O)C(C)C [S-pep7A, Ac-VTRRXLHRXFDTLA] (Ac-VTRR[S5]LHR[S5]FDTLA-OH; staple 5-9; C-terminus assumed)
Vero cells
  concentration at which toxicity / cell death was observed in the plaque assays: 50 µM
HSV-1 [1]
  EC50: 9.6 µM

## CC(=O)N[C@@H](CCCNC(=N)N)C(=O)N[C@@H](CCCNC(=N)N)C(=O)N[C@H](C(=O)N[C@@H](CCCNC(=N)N)C(=O)N[C@@H](CCCNC(=N)N)C(=O)N[C@@]1(C)CCCC=CCCC[C@@](C)(C(=O)N[C@@H](Cc2ccccc2)C(=O)N[C@@H](CC(=O)O)C(=O)N[C@H](C(=O)N[C@@H](CC(C)C)C(=O)N[C@@H](C)C(=O)O)[C@@H](C)O)NC(=O)[C@H](CCCNC(=N)N)NC(=O)[C@H](Cc2c[nH]cn2)NC(=O)[C@H](CC(C)C)NC1=O)[C@@H](C)O [S-pep7D, Ac-RRTRRXLHRXFDTLA] (Ac-RRTRR[S5]LHR[S5]FDTLA-OH; staple 6-10; C-terminus assumed)
Vero cells
  concentration at which toxicity / cell death was observed in the plaque assays: 5 µM

## CC(=O)N[C@H](C(=O)N[C@H](C(=O)N[C@H](C(=O)N[C@@H](CCCNC(=N)N)C(=O)N[C@@H](CCCNC(=N)N)C(=O)N[C@@]1(C)CCCC=CCCC[C@@](C)(C(=O)N[C@@H](Cc2ccccc2)C(=O)N[C@@H](CC(=O)O)C(=O)N[C@H](C(=O)N[C@@H](CC(C)C)C(=O)N[C@@H](C)C(=O)O)[C@@H](C)O)NC(=O)[C@H](CCCNC(=N)N)NC(=O)[C@H](Cc2c[nH]cn2)NC(=O)[C@H](CC(C)C)NC1=O)[C@@H](C)O)C(C)C)C(C)C [S-pep7B, Ac-VVTRRXLHRXFDTLA] (Ac-VVTRR[S5]LHR[S5]FDTLA-OH; staple 6-10; C-terminus assumed)
Vero cells
  concentration at which toxicity / cell death was observed in the plaque assays: no visible cytotoxicity
[2]
  CC50 at 24 h: 31.2 µM
[3]; 50 µM, 4 h post-treatment
  viral DNA level relative to time point 0 h: completely suppressed
[3]; MOI ~1, 4 h post-treatment, increasing concentrations, normalized to GAPDH
  UL42 DNA levels in infected cells: greatly reduced
HSV-1 [4]
  HSV-1 structural gB protein (immunostaining): complete absence
  nuclear morphology (DAPI staining): unremarkable nuclear morphology
[5]
  inhibition of VV infection of cells: did not inhibit
[6]; read-out: CC50, LDH leakage
  CC50 at 24 h: 126 µM
[6]; read-out: CC50, intracellular ATP content
  CC50 at 24 h: 114 µM
HSV-1 [1]
  EC50: 9.8 µM

## CC(=O)N[C@@H](CCCNC(=N)N)C(=O)N[C@@H](CCCNC(=N)N)C(=O)N[C@@]1(C)CCCC=CCCCCCC[C@](C)(C(=O)N[C@@H](CC(C)C)C(=O)N[C@@H](C)C(=O)O)NC(=O)[C@H](CC(=O)O)NC(=O)[C@H](Cc2ccccc2)NC(=O)[C@H](C)NC(=O)[C@H](CCCNC(=N)N)NC(=O)[C@H](Cc2c[nH]cn2)NC(=O)[C@H](CC(C)C)NC1=O [S-pep4, Ac-RRXLHRAFDZLA] (Ac-RR[S5]LHRAFD[R8]LA-OH; staple 3-10; C-terminus assumed)
Vero cells
  concentration at which toxicity / cell death was observed in the plaque assays: 12.5 µM

## CC(=O)N[C@@H](CCCNC(=N)N)C(=O)N[C@H](C(=O)N[C@@H](CCCNC(=N)N)C(=O)N[C@@H](CCCNC(=N)N)C(=O)N[C@@]1(C)CCCC=CCCC[C@@](C)(C(=O)N[C@@H](Cc2ccccc2)C(=O)N[C@@H](CC(=O)O)C(=O)N[C@H](C(=O)N[C@@H](CC(C)C)C(=O)N[C@@H](C)C(=O)O)[C@@H](C)O)NC(=O)[C@H](CCCNC(=N)N)NC(=O)[C@H](Cc2c[nH]cn2)NC(=O)[C@H](CC(C)C)NC1=O)[C@@H](C)O [S-pep7C, Ac-RTRRXLHRXFDTLA] (Ac-RTRR[S5]LHR[S5]FDTLA-OH; staple 5-9; C-terminus assumed)
Vero cells
  concentration at which toxicity / cell death was observed in the plaque assays: 5 µM

B1: Native peptide (N-pep) (peptide)
peptide: Ac-ETRRMLHRAFDTLA
[7]
  IC50 of in vitro processive DNA synthesis directed by recombinant UL30 and UL42: > 200 µM
